How the values were obtained:
Phakopsora pachyrhizi = Phakopsora pachyrhizi test on soybean, preventive, greenhouse; format: in vivo; details: preventive spray on soybean, inoculated one day after treatment, read-out: control (efficacy, disease severity) compared to the untreated check
Protocol: The respective compound was dissolved in 2% dimethyl sulfoxide/acetone and then mixed with water containing emulsifier to the calibrated spray volume of 30 mL. Each spray solution was poured into a spray bottle for further application.
To test the preventive activity of a compound, healthy young soybean plants, raised in the greenhouse, were sprayed with the active compound preparation at the stated application rate inside the spray cabinets using hollow cone nozzles. One day after treatment, the plants were inoculated with a conidial suspension containing 2×10^5 Phakopsora pachyrhizi inoculum. The inoculated plants were then kept in a greenhouse chamber at 22-24° C. temperature and 80-90% relative humidity for disease expression.

Botrytis cinerea = Botrytis cinerea test on tomato, preventive, greenhouse; format: in vivo; details: preventive spray on bean/chili plants (heading: tomato), inoculated one day after treatment, read-out: control (efficacy, disease severity) compared to the untreated check
Parastagonospora nodorum = Parastagonospora nodorum (PARANO) spore growth inhibition in liquid medium, 96-well microtiter plate, OD 600; format: cell-based; details: spore suspension in PDB liquid medium, 18° C., 5-6 days, OD at 600, read-out: control compared to the untreated check
Protocol: Potato dextrose (PDB) liquid medium (Difco) containing a PARANO (10^5 spores/ml) spore suspension was prepared. For the inhibition assay, each test compound was solved in dimethyl sulfoxide. 100 μl of the test compound in media-solution was added to a 96-well microtiter plate, consequently, the same volume (100 μl) of spore suspension was added to the well making the final test concentrations and the plate was incubated at 18° C. for 5-6 days. The growth inhibition was evaluated by measuring the OD at 600. Percent inhibition was calculated with the below formula: […]

Colletotrichum capsici = Colletotrichum capsici (anthracnose) mycelial radial growth on potato dextrose agar; format: cell-based; details: Colletotrichum truncatum, 168 h, 25° C., seven days, read-out: control compared to the untreated check
Protocol: The compounds were dissolved in 0.3% dimethyl sulfoxide and then added to potato dextrose agar medium just prior to dispensing it into petri dishes. 5 mL medium, with the compound in the desired concentration, was dispensed into 60 mm sterile petri-plates. After solidification, each plate was seeded with a 5 mm size mycelial disc taken from the periphery of an actively growing virulent culture plate. The plates were incubated in growth chambers at 25° C. temperature and 60% relative humidity for seven days and the radial growth was measured and compared to the one of the untreated control.

Pyricularia oryzae = experiment: microbe, parasite or virus in culture; format: cell-based; details: 168 h, read-out: control compared to the untreated check

Cc1nc2[nH]ccc2cc1C(=O)NC(C)(Cc1ccccc1)CC(C)C (stereo not shown) [Compound 96, N-(2,4-dimethyl-1-phenylpentan-2-yl)-6-methyl-1H-pyrrolo[2,3-b]pyridine-5-carboxamide]
pest or weed control at 500 ppm (Phakopsora pachyrhizi): ≥ 70% | pest or weed control at 500 ppm (Botrytis cinerea): ≥ 70%

CC(C)(COC(=O)c1ccccc1C(F)(F)F)NC(=O)c1cnc2c(c1)CCCC2 [Compound 150, 2-methyl-2-(5,6,7,8-tetrahydroquinoline-3-carboxamido)propyl 2-(trifluoromethyl)benzoate]
pest or weed control at 500 ppm (Phakopsora pachyrhizi): ≥ 70% | inhibition of growth at 300 ppm (Parastagonospora nodorum): ≥ 70% | pest or weed control at 500 ppm (Botrytis cinerea): ≥ 70%

Cn1ccc2cc(C(=O)NC3Cc4ccccc4C3)cnc21 [Compound 76, N-(2,3-dihydro-1H-inden-2-yl)-1-methyl-1H-pyrrolo[2,3-b] pyridine-5-carboxamide]
pest or weed control at 500 ppm (Phakopsora pachyrhizi): ≥ 70% | pest or weed control at 500 ppm (Botrytis cinerea): ≥ 70%

CC(C)(Cc1ccccc1)NC(=O)c1cnc2c(c1)CCCC2 [Compound 45, N-(2-methyl-1-phenylpropan-2-yl)-5,6,7,8-tetrahydroquinoline-3-carboxamide]
pest or weed control at 500 ppm (Phakopsora pachyrhizi): ≥ 70% | inhibition of growth at 300 ppm (Colletotrichum capsici): ≥ 70% | inhibition of growth at 300 ppm (Parastagonospora nodorum): ≥ 70%

CN(C(=O)c1cnc2c(c1)c(C1CC1)cn2C)C(C)(C)Cc1ccccc1 [Compound 57, 3-cyclopropyl-N,1-dimethyl-N-(2-methyl-1-phenylpropan-2-yl)-1H-pyrrolo[2,3-b] pyridine-5-carboxamide]
pest or weed control at 500 ppm (Phakopsora pachyrhizi): ≥ 70% | pest or weed control at 500 ppm (Botrytis cinerea): ≥ 70%

Cn1ccc2cc(C(=O)NC(C)(C)C(O)Cc3ccccc3)cnc21 (stereo not shown) [Compound 116, N-(3-hydroxy-2-methyl-4-phenylbutan-2-yl)-1-methyl-1H-pyrrolo[2,3-b]pyridine-5-carboxamide]
inhibition of growth at 300 ppm (Colletotrichum capsici): ≥ 70%

Cc1nc2c(ccn2C)cc1C(=O)NC(C)(Cc1ccccc1)CC(C)C (stereo not shown) [Compound 34, N-(2,4-dimethyl-1-phenylpentan-2-yl)-1,6-dimethyl-1H-pyrrolo[2,3-b]pyridine-5-carboxamide]
pest or weed control at 500 ppm (Phakopsora pachyrhizi): ≥ 70% | inhibition of growth at 300 ppm (Colletotrichum capsici): ≥ 70% | inhibition of growth at 300 ppm (Parastagonospora nodorum): ≥ 70% | inhibition of growth at 300 ppm (Pyricularia oryzae): ≥ 70%

Cn1cc(Br)c2cc(C(=O)NC(C)(C)Cc3ccccc3)cnc21 [Compound 46]
pest or weed control at 500 ppm (Phakopsora pachyrhizi): ≥ 70% | pest or weed control at 500 ppm (Botrytis cinerea): ≥ 70% | inhibition of growth at 300 ppm (Pyricularia oryzae): ≥ 70%

Cn1cc(F)c2cc(C(=O)NC(C)(C)Cc3ccc(Cl)cc3)cnc21 [Compound 66, N-(1-(4-chlorophenyl)-2-methylpropan-2-yl)-3-fluoro-1-methyl-1H-pyrrolo[2,3-b]pyridine-5-carboxamide]
pest or weed control at 500 ppm (Phakopsora pachyrhizi): ≥ 70% | pest or weed control at 500 ppm (Botrytis cinerea): ≥ 70%

CC(C)CC(C)(Cc1ccccc1)NC(=O)c1cnc2ccsc2c1 (stereo not shown) [Compound 29, N-(2,4-dimethyl-1-phenylpentan-2-yl)thieno[3,2-b] pyridine-6-carboxamide]
pest or weed control at 500 ppm (Phakopsora pachyrhizi): ≥ 70% | inhibition of growth at 300 ppm (Colletotrichum capsici): ≥ 70% | inhibition of growth at 300 ppm (Pyricularia oryzae): ≥ 70%

CCC(O)(CC)C(NC(=O)c1cnc2c(ccn2C)c1)c1ccccc1 (stereo not shown) [Compound 120, N-(2-ethyl-2-hydroxy-1-phenylbutyl)-1-methyl-1H-pyrrolo[2,3-b]pyridine-5-carboxamide]
pest or weed control at 500 ppm (Botrytis cinerea): ≥ 70%

CC(C)CC(C)(Cc1ccccc1)NC(=O)c1cc2c(nc1Cl)CCC2 (stereo not shown) [Compound 211, 2-chloro-N-(2,4-dimethyl-1-phenylpentan-2-yl)-6,7-dihydro-5H-cyclopenta[b]pyridine-3-carboxamide]
inhibition of growth at 300 ppm (Colletotrichum capsici): ≥ 70% | inhibition of growth at 300 ppm (Parastagonospora nodorum): ≥ 70%

Cc1nc2c(ccn2C)cc1C(=O)NC(C)(C)C(C)c1ccccc1F (stereo not shown) [Compound 35, N-(3-(2-fluorophenyl)-2-methylbutan-2-yl)-1,6-dimethyl-1H-pyrrolo[2,3-b]pyridine-5-carboxamide]
pest or weed control at 500 ppm (Phakopsora pachyrhizi): ≥ 70% | pest or weed control at 500 ppm (Botrytis cinerea): ≥ 70%

COc1cc(C(=O)OCC(C)(C)NC(=O)c2cnc3ccsc3c2)ccc1F [Compound 124, 2-methyl-2-(thieno[3,2-b]pyridine-6-carboxamido)propyl 4-fluoro-3-methoxybenzoate]
inhibition of growth at 300 ppm (Parastagonospora nodorum): ≥ 70% | pest or weed control at 500 ppm (Botrytis cinerea): ≥ 70% | inhibition of growth at 300 ppm (Pyricularia oryzae): ≥ 70%

Cn1ccc2cc(C(=O)NC(C)(C)Cc3ccc(F)c(F)c3)cnc21 [Compound 23, N-(1-(3,4-difluorophenyl)-2-methylpropan-2-yl)-1-methyl-1H-pyrrolo[2,3-b]pyridine-5-carboxamide]
pest or weed control at 500 ppm (Phakopsora pachyrhizi): ≥ 70% | inhibition of growth at 300 ppm (Colletotrichum capsici): ≥ 70% | inhibition of growth at 300 ppm (Parastagonospora nodorum): ≥ 70% | inhibition of growth at 300 ppm (Pyricularia oryzae): ≥ 70%

C=C(C)CC(C)(COc1ccc(F)cc1)NC(=O)c1cnc2ccsc2c1 (stereo not shown) [Compound 122, N-(1-(4-fluorophenoxy)-2,4-dimethylpent-4-en-2-yl)thieno[3,2-b] pyridine-6-carboxamide]
inhibition of growth at 300 ppm (Colletotrichum capsici): ≥ 70% | pest or weed control at 500 ppm (Botrytis cinerea): ≥ 70%

CC(C)CC(C)(Cc1ccccc1F)NC(=O)c1cnc2c(ccn2C)c1 (stereo not shown) [Compound 36, N-(1-(2-fluorophenyl)-2,4-dimethylpentan-2-yl)-1-methyl-1H-pyrrolo[2,3-b]pyridine-5-carboxamide]
inhibition of growth at 300 ppm (Colletotrichum capsici): ≥ 70% | inhibition of growth at 300 ppm (Parastagonospora nodorum): ≥ 70% | inhibition of growth at 300 ppm (Pyricularia oryzae): ≥ 70%

Cn1cc(C2CC2)c2cc(C(=O)NC(C)(C)Cc3ccccc3)cnc21 [Compound 54, 3-cyclopropyl-1-methyl-N-(2-methyl-1-phenylpropan-2-yl)-1H-pyrrolo[2,3-b] pyridine-5-carboxamide]
pest or weed control at 500 ppm (Phakopsora pachyrhizi): ≥ 70% | pest or weed control at 500 ppm (Botrytis cinerea): ≥ 70%

CN(C(=O)c1cnc2c(c1)c(Cl)cn2C)C(C)(C)Cc1ccccc1 [Compound 56, 3-chloro-N,1-dimethyl-N-(2-methyl-1-phenylpropan-2-yl)-1H-pyrrolo[2,3-b] pyridine-5-carboxamide]
pest or weed control at 500 ppm (Phakopsora pachyrhizi): ≥ 70% | inhibition of growth at 300 ppm (Parastagonospora nodorum): ≥ 70% | inhibition of growth at 300 ppm (Pyricularia oryzae): ≥ 70%

CC(c1ccccc1F)C(C)(C)NC(=O)c1cnc2c(c1)c(C1CC1)cn2C (stereo not shown) [Compound 65, 3-cyclopropyl-N-(3-(2-fluorophenyl)-2-methylbutan-2-yl)-1-methyl-1H-pyrrolo[2,3-b]pyridine-5-carboxamide]
pest or weed control at 500 ppm (Phakopsora pachyrhizi): ≥ 70% | inhibition of growth at 300 ppm (Pyricularia oryzae): ≥ 70%

Cn1cc(Br)c2cc(C(=O)NC(C)(C)Cc3ccccc3Cl)cnc21 [Compound 84, 3-bromo-N-(1-(2-chlorophenyl)-2-methylpropan-2-yl)-1-methyl-1H-pyrrolo[2,3-b]pyridine-5-carboxamide]
pest or weed control at 500 ppm (Phakopsora pachyrhizi): ≥ 70% | pest or weed control at 500 ppm (Botrytis cinerea): ≥ 70%

Cn1ccc2cc(C(=O)NC(C)(C)Cc3ccc(Br)cc3)cnc21 [Compound 61, N-(1-(4-bromophenyl)-2-methylpropan-2-yl)-1-methyl-1H-pyrrolo[2,3-b]pyridine-5-carboxamide]
pest or weed control at 500 ppm (Botrytis cinerea): ≥ 70%

CC(Cc1ccccc1)(CC(F)(F)F)NC(=O)c1cnc2ccsc2c1 (stereo not shown) [Compound 25, N-(4,4,4-trifluoro-2-methyl-1-phenylbutan-2-yl)thieno[3,2-b] pyridine-6-carboxamide]
pest or weed control at 500 ppm (Phakopsora pachyrhizi): ≥ 70% | inhibition of growth at 300 ppm (Colletotrichum capsici): ≥ 70% | inhibition of growth at 300 ppm (Parastagonospora nodorum): ≥ 70% | inhibition of growth at 300 ppm (Pyricularia oryzae): ≥ 70%

C[C@H](NC(=O)c1cnc2c(ccn2C)c1)C(O)(c1cc(Cl)cc(Cl)c1)c1cc(Cl)cc(Cl)c1 [Compound 141]
pest or weed control at 500 ppm (Phakopsora pachyrhizi): ≥ 70% | inhibition of growth at 300 ppm (Pyricularia oryzae): ≥ 70%

CSc1ccc(C(NC(=O)c2cnc3c(ccn3C)c2)C(C)C)cc1 (stereo not shown) [Compound 90]
inhibition of growth at 300 ppm (Colletotrichum capsici): ≥ 70% | inhibition of growth at 300 ppm (Parastagonospora nodorum): ≥ 70%

Cn1ccc2cc(C(=O)NC(C)(C)Cc3ccc(F)cc3)cnc21 [Compound 74, N-(1-(4-fluorophenyl)-2-methylpropan-2-yl)-1-methyl-1H-pyrrolo[2,3-b]pyridine-5-carboxamide]
pest or weed control at 500 ppm (Botrytis cinerea): ≥ 70%

Cc1nc2[nH]ccc2cc1C(=O)NC1(Cc2ccccc2)CC1 [Compound 97, N-(1-benzylcyclopropyl)-6-methyl-1H-pyrrolo[2,3-b]pyridine-5-carboxamide]
pest or weed control at 500 ppm (Phakopsora pachyrhizi): ≥ 70% | pest or weed control at 500 ppm (Botrytis cinerea): ≥ 70%

C=C(C)CC(C)(Cc1ccc(F)cc1)NC(=O)c1cnc2c(ccn2C)c1 (stereo not shown) [Compound 181, N-(1-(4-fluorophenyl)-2,4-dimethylpent-4-en-2-yl)-1-methyl-1H-pyrrolo[2,3-b]pyridine-5-carboxamide]
inhibition of growth at 300 ppm (Colletotrichum capsici): ≥ 70% | inhibition of growth at 300 ppm (Parastagonospora nodorum): ≥ 70%

Cc1ccc(F)cc1C(O)C(C)(C)NC(=O)c1cnc2ccsc2c1 (stereo not shown) [Compound 133, N-(1-(5-fluoro-2-methylphenyl)-1-hydroxy-2-methylpropan-2-yl)thieno[3,2-b] pyridine-6-carboxamide]
pest or weed control at 500 ppm (Phakopsora pachyrhizi): ≥ 70% | inhibition of growth at 300 ppm (Pyricularia oryzae): ≥ 70%

Source: patent publication US20250049036A1 (priority 2021, published 2025)
